# Source: patent publication US20090176817A1, “Method of Treatment of Diarrhea-Predominant Irritable Bowel Syndrome in a Subject” (priority 2005, published 2009)
# Marks after values point to notes of the source that are not given here.
# Legend:
# [1] = Study S.241.1.110: pharmacokinetics in renal impairment, 2 mg TID; conditions: for AUC(0-τ) / Cmax / T½ / Tmax / Cmin: cilansetron 2 mg TID; for AUC(0-τ) / Cmax / T½ / Cmin: mean (%CV); for Tmax: median; for Cmin: Day 6 morning predose value
# Protocol: The effect of renal impairment on the pharmacokinetics of cilansetron was evaluated in a study excluding subjects with end-stage renal disease, and utilizing a single-center, open-label, multiple-dose, parallel group study in 13 male and 9 female subjects, aged 33-74 years. […] Healthy subjects were matched to renally-impaired subjects with respect to age, weight, gender, and smoking status. All subjects received oral cilansetron 2 mg TID on Days 1 to 5, and a single dose on the morning of Day 6. Blood samples for measurement of plasma pharmacokinetics of cilansetron and its 4-hydroxy metabolites were collected up to 24 hours following dosing on Day 6, and log-transformed pharmacokinetic parameters for these analytes were statistically compared between study groups. Serum concentrations of unbound cilansetron and its 4-hydroxy metabolites were also measured prior to dosing and at 1 and 1.5 hours postdose on Day 6.
# [2] = Study S.241.1.110: ex vivo protein binding in serum, healthy and renally impaired; conditions: for Fraction unbound ratio All Renal Groups Combined:Healthy / Fraction unbound ratio Mild:Healthy / Fraction unbound ratio Moderate:Healthy / Fraction unbound ratio Severe:Healthy: ratio (90% CI)
# Protocol: The ex vivo protein binding of cilansetron and its 4-hydroxy metabolites has been measured in serum samples collected in a multiple-dose study in healthy and renally impaired male and female subjects, aged 33-74 years. […] Healthy subjects were matched to renally-impaired subjects with respect to age, weight, gender, and smoking status. All subjects received oral cilansetron 2 mg TID on Days 1 to 5, and a single dose on the morning of Day 6.
# [3] = Study S.241.1.109: interaction with paroxetine 20 mg QD; format: in vivo, human; conditions: for AUC(0-τ) / Cmax / Tmax: steady state; for AUC(0-τ): AUC(0-8); for AUC(0-τ) / Cmax: arith. mean; for Tmax: median
# Protocol: (§1) In an open-label, randomized, parallel-group study in three groups of 12 healthy, male and female subjects (aged 19 to 45 years), subjects received a 2 mg single dose of cilansetron on Day 1, 2 mg TID on Days 2-13, and a 2 mg single dose on Day 14. […] All morning doses of cilansetron and enzyme inhibitors were administered immediately after a standard breakfast. […] For each treatment group, log-transformed cilansetron AUC(0-τ) and Cmax values on Day 14 (cilansetron+enzyme inhibitor) were compared statistically versus values on Day 7 (cilansetron alone).
# FIG. 50, FIG. 51, and FIG. 52 present geometric mean steady-state plasma concentration-time profiles for cilansetron and its 4-hydroxy metabolites in the absence and presence of concomitant paroxetine. […] These increases in exposure are not clinically significant.
# [4] = Study S.241.1.107: pharmacokinetics in hepatic impairment, 8 mg TID; conditions: for AUC(0-τ): AUC(0-8); for AUC(0-τ) / Cmax / T½: arith. mean (%CV); for Tmax: median
# [5] = target: T1, human P-glycoprotein (Homo sapiens, UniProt P08183); assay: Study K.241.6026: in vitro transport by P-glycoprotein in PK 1 LLC MDR cells; format: in vitro ADME; conditions: arithmetic mean percentages transported, 3 hours of incubation
# T1 construct: expressed in transfected cells; host or cells: PK 1 LLC MDR cells (LLC-PK1 porcine kidney cells expressing human MDR1, by own knowledge)
# [6] = Study S.241.1.109: interaction with ketoconazole 200 mg BID; format: in vivo, human; conditions: for AUC(0-τ) / Cmax / Tmax: steady state; for AUC(0-τ): AUC(0-8); for AUC(0-τ) / Cmax: arith. mean; for Tmax: median
# Protocol: as §1
# [7] = moderate renal impairment, Day 6
# [8] = Cilansetron 2 mg TID + Paroxetine 20 mg QD
# [9] = Cilansetron 2 mg TID alone (paroxetine group)
# [10] = cilansetron + paroxetine / cilansetron alone, ANOVA of log-transformed data
# [11] = geometric LS mean ratio impaired/healthy, cilansetron 8 mg TID oral
# [12] = healthy, cilansetron 8 mg TID oral
# [13] = hepatically impaired, cilansetron 8 mg TID oral
# [14] = Cilansetron 2 mg TID + Ketoconazole 200 mg twice daily
# [15] = Cilansetron 2 mg TID alone (ketoconazole group)
# [16] = cilansetron + ketoconazole / cilansetron alone, ANOVA of log-transformed data
# T1 sequence (P08183 whole entry): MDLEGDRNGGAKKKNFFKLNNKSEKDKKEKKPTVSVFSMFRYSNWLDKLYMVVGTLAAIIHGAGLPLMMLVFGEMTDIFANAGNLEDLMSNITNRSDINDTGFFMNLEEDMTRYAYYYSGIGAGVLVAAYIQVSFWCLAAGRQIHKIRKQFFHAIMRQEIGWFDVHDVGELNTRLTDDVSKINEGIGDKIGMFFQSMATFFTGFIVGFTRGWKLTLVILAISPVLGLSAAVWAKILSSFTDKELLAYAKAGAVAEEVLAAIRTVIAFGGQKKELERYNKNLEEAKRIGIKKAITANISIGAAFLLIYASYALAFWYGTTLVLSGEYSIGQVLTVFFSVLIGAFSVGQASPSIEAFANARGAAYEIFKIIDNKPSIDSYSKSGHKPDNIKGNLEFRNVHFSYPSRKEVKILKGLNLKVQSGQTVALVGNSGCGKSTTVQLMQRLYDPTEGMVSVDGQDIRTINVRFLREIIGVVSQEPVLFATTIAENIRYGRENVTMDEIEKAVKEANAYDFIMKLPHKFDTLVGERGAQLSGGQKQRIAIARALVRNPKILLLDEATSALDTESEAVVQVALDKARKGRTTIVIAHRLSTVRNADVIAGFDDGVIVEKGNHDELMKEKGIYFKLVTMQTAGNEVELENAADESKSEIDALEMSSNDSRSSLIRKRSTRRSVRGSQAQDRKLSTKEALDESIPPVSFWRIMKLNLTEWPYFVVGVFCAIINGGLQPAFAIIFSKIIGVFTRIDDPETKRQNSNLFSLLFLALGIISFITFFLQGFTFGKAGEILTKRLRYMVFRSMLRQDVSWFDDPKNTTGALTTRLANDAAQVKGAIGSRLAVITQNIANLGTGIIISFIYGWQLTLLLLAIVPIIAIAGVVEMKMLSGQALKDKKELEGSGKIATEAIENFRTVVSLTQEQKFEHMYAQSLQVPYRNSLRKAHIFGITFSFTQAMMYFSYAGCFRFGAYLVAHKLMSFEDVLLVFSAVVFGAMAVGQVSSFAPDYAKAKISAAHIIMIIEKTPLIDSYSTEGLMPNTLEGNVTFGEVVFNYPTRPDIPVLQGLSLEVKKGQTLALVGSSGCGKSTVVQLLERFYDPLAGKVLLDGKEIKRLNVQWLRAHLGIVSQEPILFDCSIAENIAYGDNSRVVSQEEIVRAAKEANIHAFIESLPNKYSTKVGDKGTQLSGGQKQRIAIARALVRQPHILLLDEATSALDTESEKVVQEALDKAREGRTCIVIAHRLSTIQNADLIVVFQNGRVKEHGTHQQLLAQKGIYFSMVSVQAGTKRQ
compound,measurement,setting,value
Cc1nccn1CC1CCc2c(c3cccc4c3n2CC[C@H]4O)C1=O (stereo partly drawn) [(4R)-hydroxy cilansetron],Plasma Conc.,"[1]; Day 6 1 h, Healthy",3.90 (37) ng/mL
same,Plasma Conc.,"[1]; Day 6 1 h, Mild",4.86 (39) ng/mL
same,Plasma Conc.,"[1]; Day 6 1 h, Moderate",3.94 (32) ng/mL
same,Plasma Conc.,"[1]; Day 6 1 h, Severe",7.67 (38) ng/mL
same,AUC(0-τ) ratio Mild/Healthy,"[1]; Day 6, geometric LS mean ratio (90% CI)","118 (90, 153) %"
same,AUC(0-τ) ratio Moderate/Healthy,"[1]; Day 6, ratio (90% CI)","137 (104, 182) %"
same,AUC(0-τ) ratio Renal Combined/Healthy,"[1]; Day 6, ratio (90% CI)","166 (136, 204)* %"
same,AUC(0-τ) ratio Severe/Healthy,"[1]; Day 6, ratio (90% CI)","284 (215, 377)* %"
same,Cmax ratio Mild/Healthy,"[1]; Day 6, ratio (90% CI)","134 (101, 177) %"
same,Cmax ratio Moderate/Healthy,"[1]; Day 6, ratio (90% CI)","137 (102, 185) %"
same,Cmax ratio Renal Combined/Healthy,"[1]; Day 6, ratio (90% CI)","158 (127, 196)* %"
same,Cmax ratio Severe/Healthy,"[1]; Day 6, ratio (90% CI)","215 (159, 290)* %"
same,T½ ratio Mild/Healthy,"[1]; Day 6, ratio (90% CI)","109 (84, 142) %"
same,T½ ratio Moderate/Healthy,"[1]; Day 6, ratio (90% CI)","129 (97, 171) %"
same,T½ ratio Renal Combined/Healthy,"[1]; Day 6, ratio (90% CI)","140 (114, 172)* %"
same,T½ ratio Severe/Healthy,"[1]; Day 6, ratio (90% CI)","195 (147, 259)* %"
same,Plasma Conc.,"[1]; Day 6 […], Healthy",3.79 (20) ng/mL
same,Plasma Conc.,"[1]; Day 6 […], Mild",3.86 (20) ng/mL
same,Plasma Conc.,"[1]; Day 6 […], Moderate",4.75 (28) ng/mL
same,Plasma Conc.,"[1]; Day 6 […], Severe",7.87 (38) ng/mL
same,AUC(0-τ),"[1]; healthy subjects, Day 6",18.7 (21) ng · h/mL
same,Cmax,"[1]; healthy subjects, Day 6",4.30 (33) ng/mL
same,T½,"[1]; healthy subjects, Day 6",7.05 (21) h
same,Tmax,"[1]; healthy subjects, Day 6",1.25 h
same,Cmin,[1]; healthy subjects,1.56 (24) ng/mL
same,Exposure increase with severe renal impairment,[1]; in vivo,2-3 fold
same,Mean AUC(0-τ) increase vs healthy,[1]; mild impairment,18%
same,Mean Cmax increase vs healthy,[1]; mild impairment,34%
same,AUC(0-τ),"[1]; mild renal impairment, Day 6",21.6 (9) ng · h/mL
same,Cmax,"[1]; mild renal impairment, Day 6",5.66 (25) ng/mL
same,T½,"[1]; mild renal impairment, Day 6",7.93 (38) h
same,Tmax,"[1]; mild renal impairment, Day 6",1.25 h
same,Cmin,[1]; mild renal impairment,1.68 (24) ng/mL
same,Mean AUC(0-τ) increase vs healthy,[1]; moderate impairment,37%
same,Mean Cmax increase vs healthy,[1]; moderate impairment,37%
same,AUC(0-τ),[1]; [7],26.3 (34) ng · h/mL
same,Cmax,[1]; [7],5.83 (28) ng/mL
same,T½,[1]; [7],9.32 (36) h
same,Tmax,[1]; [7],1.25 h
same,Cmin,[1]; moderate renal impairment,2.06 (40) ng/mL
same,Mean AUC(0-τ) increase vs healthy,[1]; severe impairment,184%
same,Mean Cmax increase vs healthy,[1]; severe impairment,115%
same,AUC(0-τ),"[1]; severe renal impairment, Day 6",55.8 (45) ng · h/mL
same,Cmax,"[1]; severe renal impairment, Day 6",9.35 (39) ng/mL
same,T½,"[1]; severe renal impairment, Day 6",13.9 (30) h
same,Tmax,"[1]; severe renal impairment, Day 6",1.50 h
same,Cmin,[1]; severe renal impairment,4.36 (36) ng/mL
same,Fraction unbound ratio All Renal Groups Combined:Healthy,[2]; 1 h,"121 (109, 134)^b %"
same,Fraction unbound ratio Mild:Healthy,[2]; 1 h,"106 (93, 121) %"
same,Fraction unbound ratio Moderate:Healthy,[2]; 1 h,"137 (119, 157)^b %"
same,Fraction unbound ratio Severe:Healthy,[2]; 1 h,"121 (105, 140)^b %"
same,Fraction Unbound in Serum,"[2]; Day 6 1 h, Healthy",24.7 (7) %
same,Fraction Unbound in Serum,"[2]; Day 6 1 h, Mild",26.4 (14) %
same,Fraction Unbound in Serum,"[2]; Day 6 1 h, Moderate",34.3 (22) %
same,Fraction Unbound in Serum,"[2]; Day 6 1 h, Severe",30.2 (18) %
same,Fraction Unbound in Serum,"[2]; Day 6 […], Healthy",27.6 (15) %
same,Fraction Unbound in Serum,"[2]; Day 6 […], Mild",26.2 (17) %
same,Fraction Unbound in Serum,"[2]; Day 6 […], Moderate",28.5 (13) %
same,Fraction Unbound in Serum,"[2]; Day 6 […], Severe",23.7 (11) %
same,Fraction Unbound in Serum,"[2]; Day 6 predose, Healthy",25.3 (11) %
same,Fraction Unbound in Serum,"[2]; Day 6 predose, Mild",29.6 (30) %
same,Fraction Unbound in Serum,"[2]; Day 6 predose, Moderate",31.0 (21) %
same,Fraction Unbound in Serum,"[2]; Day 6 predose, Severe",32.4 (17) %
same,Fraction unbound ratio All Renal Groups Combined:Healthy,[2]; […],"95 (85, 105) %"
same,Fraction unbound ratio Mild:Healthy,[2]; […],"95 (83, 109) %"
same,Fraction unbound ratio Moderate:Healthy,[2]; […],"104 (90, 120) %"
same,Fraction unbound ratio Severe:Healthy,[2]; […],"86 (74, 100) %"
same,Protein bound on average,[2]; healthy subjects,72.4-75.3%
same,Fraction unbound ratio All Renal Groups Combined:Healthy,[2]; predose,"121 (105, 139)^b %"
same,Fraction unbound ratio Mild:Healthy,[2]; predose,"114 (96, 137) %"
same,Fraction unbound ratio Moderate:Healthy,[2]; predose,"122 (100, 147) %"
same,Fraction unbound ratio Severe:Healthy,[2]; predose,"128 (105, 155)^b %"
same,Plasma protein bound,[2]; therapeutic concentration range,72-75%
same,AUC(0-τ),[3]; [8],15.2 ng·h/mL
same,Cmax,[3]; [8],3.41 ng/mL
same,Tmax,[3]; [8],1.50 h
same,AUC(0-τ),[3]; [9],13.5 ng·h/mL
same,Cmax,[3]; [9],2.76 ng/mL
same,Tmax,[3]; [9],2.50 h
same,AUC(0-τ) Ratio (Treatment B/A),[3]; [10],116%
same,Cmax Ratio (Treatment B/A),[3]; [10],127%
same,Mean AUC increase with paroxetine,"[3]; human, in vivo",16%
same,Mean Cmax increase with paroxetine,"[3]; human, in vivo",27%
same,AUC(0-τ) Ratio,[4]; [11],0.86
same,Cmax Ratio,[4]; [11],0.70
same,"AUC(0-τ), Geom. LS Mean",[4]; [12],57.4 ng·h/mL
same,"Cmax, Geom. LS Mean",[4]; [12],13.2 ng/mL
same,AUC(0-τ),[4]; [12],62.7 (32) ng · h/mL
same,Cmax,[4]; [12],14.1 (28) ng/mL
same,T½,[4]; [12],6.38 (18) h
same,Tmax,[4]; [12],1.00 h
same,"AUC(0-τ), Geom. LS Mean",[4]; [13],49.4 ng·h/mL
same,"Cmax, Geom. LS Mean",[4]; [13],9.30 ng/mL
same,AUC(0-τ),[4]; [13],53.7 (40) ng · h/mL
same,Cmax,[4]; [13],11.1 (62) ng/mL
same,T½,[4]; [13],10.0 (41) h
same,Tmax,[4]; [13],1.50 h
same,AUC(0-τ) decrease with hepatic impairment,[4]; in vivo,14%
same,Cmax decrease with hepatic impairment,[4]; in vivo,30%
same,Membrane Passage,[5],14%
same,AUC(0-τ),[6]; [14],20.8 ng·h/mL
same,Cmax,[6]; [14],5.11 ng/mL
same,Tmax,[6]; [14],1.50 h
same,AUC(0-τ),[6]; [15],12.2 ng·h/mL
same,Cmax,[6]; [15],2.48 ng/mL
same,Tmax,[6]; [15],2.00 h
same,AUC(0-τ) Ratio (Treatment B/A),[6]; [16],176%
same,Cmax Ratio (Treatment B/A),[6]; [16],209%
